{
  "source": "patent US20090030073A1",
  "about": "“PLANT-DERIVED THERAPEUTIC AGENT FOR MALIGNANT” (priority 2006, published 2009)",
  "data": [
    {"system": "neuroblastoma cell strains IMR-32, SK—N—SH, and NB-39", "assay": "MTT assay, anti-malignant-tumor effect on neuroblastoma cell strains", "type": "cell-based", "details": "48 hours incubation", "method": "The anti-malignant-tumor effect of compounds (1), (2a), (2b), and (2c) on neuroblastoma cell strains IMR-32, SK—N—SH, and NB-39 was investigated using the MTT assay.\nSpecifically, each type of cells was seeded onto a 96-well plate so that the cell density was adjusted to 1×10^4 cells/well, and each drug compound was added to the wells 24 hours after seeding, followed by incubation under 5%-CO2 at 37° C. for 48 hours. Subsequently, an MTT solution was added to the wells, and blue formazan formed three hours after addition was well-mixed through pipetting. The absorbance of each well was measured at 570 nm (top) and 655 nm (bottom), and the survival cell rate with respect to the control group was calculated. In this assay, formation of blue formazan caused by activity of mitochondria is observed only when cells survive.", "values": [
      {"smiles": "C=CC[C@]12CC=CC(=O)[C@@]1(O)O[C@H](c1ccc(OC)c(OC)c1)[C@H]2C", "note": "[compound (2a)]", "cytotoxicity to neuroblastoma cells (survival cell rate, FIGS. 2 to 13)": "intense cytotoxicity"},
      {"smiles": "C=CC[C@]12CC=CC(=O)[C@@]1(O)O[C@H](c1cc(OC)c3c(c1)OCO3)[C@H]2C", "note": "[compound (2c), ferrearin G]", "cytotoxicity to neuroblastoma cells (survival cell rate, FIGS. 2 to 13)": "intense cytotoxicity"},
      {"smiles": "C=CCOc1c(OC)cc2c(c1OC)O[C@H](c1ccc3c(c1)OCO3)[C@H]2C", "note": "[compound (1)]", "cytotoxicity to neuroblastoma cells (survival cell rate, FIGS. 2 to 13)": "intense cytotoxicity"},
      {"smiles": "C=CC[C@]12CC=CC(=O)[C@@]1(O)OC(c1ccc3c(c1)OCO3)[C@H]2C", "note": "(stereo partly shown) [compound (2b), ferrearin C]", "cytotoxicity to neuroblastoma cells (survival cell rate, FIGS. 2 to 13)": "intense cytotoxicity"}
    ]}
  ]
}
